Assay results as given in PubChem BioAssay AID248 (DTP/NCI, 2004).
Toxic doses and inconclusive results are not listed. Rule as the data show it: active = T/C of 150% or more; inactive = T/C below 125%.

Test system: L1210 leukemia ip in BDF1 mice, survival T/C
Test: NCI In Vivo Anticancer Drug Screen. Data for tumor model L1210 Leukemia (intraperitoneal) in B6D2F1 (BDF1) mice
Conditions: endpoint: mean survival time, higher = longer survival
Summary of the method: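 Ratio derived from survival: compound-dosed mice over vehicle-dosed mice, all bearing a transplantable tumor.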

[1] = dose: 100.0 mg/kg/injection, schedule: Q01DX009 (ip), vehicle: saline with Tween-80
[2] = dose: 100.0 mg/kg/injection, schedule: Q04DX003 (ip), vehicle: saline with Tween-80
[3] = dose: 200.0 mg/kg/injection, schedule: Q01DX009 (ip), vehicle: saline with Tween-80
[4] = dose: 200.0 mg/kg/injection, schedule: Q04DX003 (ip), vehicle: saline with Tween-80
[5] = dose: 400.0 mg/kg/injection, schedule: Q01DX009 (ip), vehicle: saline with Tween-80
[6] = dose: 400.0 mg/kg/injection, schedule: Q04DX003 (ip), vehicle: saline with Tween-80
[7] = dose: 100.0 mg/kg/injection, schedule: Q01DX001 (ip), vehicle: saline
[8] = dose: 200.0 mg/kg/injection, schedule: Q01DX001 (ip), vehicle: saline
[9] = dose: 400.0 mg/kg/injection, schedule: Q01DX001 (ip), vehicle: saline
[10] = dose: 50.0 mg/kg/injection, schedule: Q01DX009 (ip), vehicle: Klucel (hydroxypropylcellulose) (HPC)
[11] = dose: 100.0 mg/kg/injection, schedule: Q01DX009 (ip), vehicle: Klucel (hydroxypropylcellulose) (HPC)
[12] = dose: 100.0 mg/kg/injection, schedule: Q04DX003 (ip), vehicle: Klucel (hydroxypropylcellulose) (HPC)
[13] = dose: 200.0 mg/kg/injection, schedule: Q01DX009 (ip), vehicle: Klucel (hydroxypropylcellulose) (HPC)
[14] = dose: 200.0 mg/kg/injection, schedule: Q04DX003 (ip), vehicle: Klucel (hydroxypropylcellulose) (HPC)
[15] = dose: 100.0 mg/kg/injection, schedule: Q04DX003 (ip), vehicle: saline
[16] = dose: 200.0 mg/kg/injection, schedule: Q04DX003 (ip), vehicle: saline
[17] = dose: 400.0 mg/kg/injection, schedule: Q04DX003 (ip), vehicle: saline
[18] = dose: 400.0 mg/kg/injection, schedule: Q04DX003 (ip), vehicle: Klucel (hydroxypropylcellulose) (HPC)
[19] = dose: 100.0 mg/kg/injection, schedule: Q04DX002 (ip), vehicle: Klucel (hydroxypropylcellulose) (HPC)
[20] = dose: 200.0 mg/kg/injection, schedule: Q04DX002 (ip), vehicle: Klucel (hydroxypropylcellulose) (HPC)
[21] = dose: 400.0 mg/kg/injection, schedule: Q04DX002 (ip), vehicle: Klucel (hydroxypropylcellulose) (HPC)
[22] = dose: 100.0 mg/kg/injection, schedule: Q01DX001 (ip), vehicle: Klucel (hydroxypropylcellulose) (HPC)
[23] = dose: 200.0 mg/kg/injection, schedule: Q01DX001 (ip), vehicle: Klucel (hydroxypropylcellulose) (HPC)
[24] = dose: 400.0 mg/kg/injection, schedule: Q01DX001 (ip), vehicle: Klucel (hydroxypropylcellulose) (HPC)
[25] = dose: 100.0 mg/kg/injection, schedule: Q01DX009 (ip), vehicle: gum acacia
[26] = dose: 200.0 mg/kg/injection, schedule: Q04DX003 (ip), vehicle: gum acacia
[27] = dose: 400.0 mg/kg/injection, schedule: Q04DX003 (ip), vehicle: gum acacia

Measured: T/C

COC1OC(COC(=O)c2ccccc2)C(OC(=O)Nc2ccccc2)C1O (stereo not given)
inactive: [1] 90 % of control | [2] 93 % of control | [3] 100 % of control | [4] 98 % of control | [5] 95 % of control | [6] 92 % of control

O=C(O)CC1CCN(C(=O)c2ccccc2)C(Cc2c[nH]c3ccccc23)C1O (stereo not given)
inactive: [7] 97 % of control | [8] 101 % of control | [9] 92 % of control

ClC1=C(Cl)C2(Cl)C3COCC3C1(Cl)C2(Cl)Cl (stereo not given)
inactive: [10] 105 % of control | [11] 90 % of control | [12] 97 % of control | [13] 90 % of control | [14] 95 % of control

Cc1ccc(S(=O)(=O)[O][Pb]([CH3])([CH3])[CH3])cc1
inactive: dose: 3.12 mg/kg/injection, schedule: Q01DX009 (ip), vehicle: saline 104 % of control | dose: 3.12 mg/kg/injection, schedule: Q04DX002 (ip), vehicle: saline 108 % of control | dose: 6.25 mg/kg/injection, schedule: Q01DX009 (ip), vehicle: saline 86 % of control | dose: 6.25 mg/kg/injection, schedule: Q04DX002 (ip), vehicle: saline 108 % of control | dose: 12.5 mg/kg/injection, schedule: Q04DX002 (ip), vehicle: saline 101 % of control

CC(C)CC(C)OC(=O)CCl (stereo not given)
inactive: [15] 107 % of control | [16] 105 % of control | [17] 88 % of control

ClC1=C(Cl)C2(Cl)C(C1Cl)C1(Cl)C(Cl)=C(Cl)C2(Cl)C1Cl (stereo not given)
inactive: [11] 97 % of control | [12] 102 % of control | [13] 97 % of control | [14] 104 % of control | dose: 400.0 mg/kg/injection, schedule: Q01DX009 (ip), vehicle: Klucel (hydroxypropylcellulose) (HPC) 97 % of control | [18] 93 % of control

Cc1nonc1NC(=O)OCc1ccccc1
inactive: [19] 97 % of control | [20] 93 % of control | [21] 104 % of control

CC(C)(C)N(O)C(=O)NCCCl
inactive: [22] 97 % of control | [23] 92 % of control | [24] 97 % of control

CC(C)c1ccc(NC(=O)Nc2cc(Cl)ccc2Cl)cc1
inactive: [25] 89 % of control | [26] 89 % of control | dose: 400.0 mg/kg/injection, schedule: Q01DX009 (ip), vehicle: gum acacia 89 % of control | [27] 87 % of control

COc1ccc(CCNC(=O)C2CCN(CCc3ccc(OC)c(OC)c3)CC2)cc1OC
inactive: dose: 100.0 mg/kg/injection, schedule: Q01DX001 (ip), vehicle: carboxymethylcellulose (CMC) 102 % of control | dose: 200.0 mg/kg/injection, schedule: Q01DX001 (ip), vehicle: carboxymethylcellulose (CMC) 96 % of control | dose: 400.0 mg/kg/injection, schedule: Q01DX001 (ip), vehicle: carboxymethylcellulose (CMC) 89 % of control

COC(=O)c1ccc(SC(=O)N(C)C)cc1
inactive: [12] 91 % of control | [14] 96 % of control | [18] 91 % of control

O=C(O)c1ccc(C2CC2)cc1
inactive: dose: 100.0 mg/kg/injection, schedule: Q01DX001 (ip), vehicle: other 103 % of control | dose: 100.0 mg/kg/injection, schedule: Q04DX003 (ip), vehicle: other 103 % of control | dose: 200.0 mg/kg/injection, schedule: Q01DX001 (ip), vehicle: other 108 % of control | dose: 200.0 mg/kg/injection, schedule: Q04DX003 (ip), vehicle: other 111 % of control | dose: 400.0 mg/kg/injection, schedule: Q01DX001 (ip), vehicle: other 95 % of control | dose: 400.0 mg/kg/injection, schedule: Q04DX003 (ip), vehicle: other 103 % of control

COC(=O)c1cc2ccncc2c2sc3ccccc3c12
inactive: dose: 100.0 mg/kg/injection, schedule: Q01DX009 (ip), vehicle: saline 97 % of control | [15] 90 % of control | dose: 200.0 mg/kg/injection, schedule: Q01DX009 (ip), vehicle: saline 93 % of control | [16] 92 % of control | dose: 400.0 mg/kg/injection, schedule: Q01DX009 (ip), vehicle: saline 95 % of control | [17] 90 % of control

O/N=C\c1ccccc1Cl
inactive: [1] 100 % of control | [12] 100 % of control | [3] 105 % of control | [14] 100 % of control | [18] 96 % of control

NNc1ccc(S(=O)(=O)C(F)(F)C(F)Cl)cc1 (stereo not given)
inactive: [25] 105 % of control | dose: 100.0 mg/kg/injection, schedule: Q04DX003 (ip), vehicle: gum acacia 101 % of control | dose: 200.0 mg/kg/injection, schedule: Q01DX009 (ip), vehicle: gum acacia 100 % of control | [26] 96 % of control | [27] 96 % of control

CC(C)[N+](C(C)C)(C(C)C)C(C)C.[I][Pb]([I])([I])[I]
inactive: [2] 95 % of control | [4] 98 % of control | [6] 93 % of control

CCCCCCCCCCCCCCNCCCCCCCCCCCCCC
inactive: [10] 95 % of control | dose: 50.0 mg/kg/injection, schedule: Q04DX003 (ip), vehicle: Klucel (hydroxypropylcellulose) (HPC) 105 % of control | [11] 101 % of control | [12] 101 % of control | [14] 95 % of control

Oc1cc(O)c2c(c1)OC(c1ccc(O)c(O)c1)C(O)C2c1c(O)cc(O)c2c1OC(c1ccc(O)c(O)c1)C(O)C2 (stereo not given)
inactive: [1] 101 % of control | [3] 97 % of control | [5] 93 % of control

CN(C)c1ccc(CNc2ccc(Cl)cc2)cc1
inactive: [12] 91 % of control | [14] 89 % of control | [18] 93 % of control

CCOC(=O)C(C(=O)OCC)c1ccc(Cl)cc1
inactive: dose: 50.0 mg/kg/injection, schedule: Q01DX001 (ip), vehicle: saline 101 % of control | [7] 101 % of control | [8] 101 % of control | [9] 106 % of control

CC(=O)c1cccc(NS(=O)(=O)c2ccc(Cl)cc2)c1
inactive: [19] 94 % of control | [20] 100 % of control | [21] 91 % of control

Cc1ccc2nc(-c3ccccc3N)[nH]c2c1
inactive: [1] 97 % of control | [3] 92 % of control | [5] 92 % of control

COc1ccc([N+](=O)[O-])c2c(C)cc(=O)[nH]c12
inactive: [22] 100 % of control | [11] 104 % of control | [23] 94 % of control | [13] 97 % of control | [24] 94 % of control
